# Patent US20260285850A1, “SUBSTITUTED OXAZOLIDINONES AND IMIDAZOLINONES AS HERBICIDES” (FMC CORPORATION, priority 2023, published 2026)
# What was measured:
# Type in all cases: in vivo
# kochia (Bassia scoparia) [1] = test: Test A postemergence application, visual injury rating 0-100
# Procedure, shortened: (§1)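 Directed preemergence spray onto seeded soil or postemergence spray onto 2-10 cm plants (loam plus sand); compound carried in surfactant-containing non-phytotoxic solvent. Injury rated by eye after 10 d greenhouse growth; 0 = no effect, 100 = complete control.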
# [2] = tested on: galium (catchweed bedstraw, Galium aparine); test: as above; conditions: Postemergence, 16 g ai/ha, greenhouse 10 days; 0 no effect, 100 complete control
# Procedure, shortened: as §1
# [3] = tested on: blackgrass (Alopecurus myosuroides); test: as above
# Procedure, shortened: as §1
# [4] = tested on: palmer (palmer amaranth, palmer pigweed, Amaranthus palmeri); test: as above
# Procedure, shortened: as §1
# [5] = tested on: ryegrass, Italian (italian ryegrass, Lolium multiflorum); test: as above
# Procedure, shortened: as §1
# [6] = tested on: wheat (Triticum aestivum); test: as above
# Procedure, shortened: as §1
# corn (Zea mays) [7] = test: as above
# Procedure, shortened: as §1
# [8] = tested on: green foxtail (Setaria viridis); test: as above
# Procedure, shortened: as §1
# [9] = tested on: horseweed (Erigeron canadensis); test: as above
# Procedure, shortened: as §1
# [10] = tested on: oat, wild (wild oat, Avena fatua); test: as above
# Procedure, shortened: as §1
# soybean (Glycine max) [11] = test: as above
# Procedure, shortened: as §1
# [12] = tested on: ragweed (common ragweed, Ambrosia artemisiifolia); test: as above
# Procedure, shortened: as §1
# [13] = tested on: barnyardgrass (Echinochloa crus-galli); test: as above
# Procedure, shortened: as §1
# [14] = tested on: sedge, umbrella (small-flower umbrella sedge, Cyperus difformis); test: Test B flooded paddy test, visual plant response rating 0-100; conditions: 250 g ai/ha, Flood, applied to paddy water, evaluated after 13 days
# Procedure, shortened: (§2)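 2-leaf plants; flood 3 cm over soil; compound dosed into paddy water; depth kept constant; greenhouse 13 d; visual scoring vs controls. Dash = no result.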
# [15] = tested on: barnyardgrass (Echinochloa crusgalli); test: as above; conditions: 250 g ai/ha, Flood, applied to paddy water, evaluated after 13 days
# Procedure, shortened: as §2
# [16] = tested on: ducksalad (Heteranthera limosa); test: as above; conditions: 250 g ai/ha, Flood, applied to paddy water, evaluated after 13 days
# Procedure, shortened: as §2
# rice (Oryza sativa) = test: as above; conditions: 250 g ai/ha, Flood, applied to paddy water, evaluated after 13 days
# Procedure, shortened: as §2
# kochia (Bassia scoparia) [17] = test: Test A preemergence soil spray, visual injury rating 0-100; conditions: 10 days
# Procedure, shortened: as §1
# [18] = tested on: blackgrass (Alopecurus myosuroides); test: as above; conditions: 10 days
# Procedure, shortened: as §1
# [19] = tested on: palmer (palmer amaranth, palmer pigweed, Amaranthus palmeri); test: as above; conditions: 10 days
# Procedure, shortened: as §1
# [20] = tested on: ryegrass, Italian (italian ryegrass, Lolium multiflorum); test: as above; conditions: 10 days
# Procedure, shortened: as §1
# [21] = tested on: wheat (Triticum aestivum); test: as above; conditions: 10 days
# Procedure, shortened: as §1
# corn (Zea mays) [22] = test: as above; conditions: 10 days
# Procedure, shortened: as §1
# [23] = tested on: green foxtail (Setaria viridis); test: as above; conditions: 10 days
# Procedure, shortened: as §1
# [24] = tested on: oat, wild (wild oat, Avena fatua); test: as above; conditions: 10 days
# Procedure, shortened: as §1
# soybean (Glycine max) [25] = test: as above; conditions: 10 days
# Procedure, shortened: as §1
# [26] = tested on: ragweed (common ragweed, Ambrosia artemisiifolia); test: as above; conditions: 10 days
# Procedure, shortened: as §1
# [27] = tested on: barnyardgrass (Echinochloa crus-galli); test: as above; conditions: 10 days
# Procedure, shortened: as §1
# [28] = 62 g ai/ha, postemergence, 10 days, 0 = no effect, 100 = complete control
# [29] = Postemergence, 16 g ai/ha, greenhouse 10 days, 0 no effect, 100 complete control
# [30] = 62 g ai/ha, 0 = no effect, 100 = complete control
smiles,measurement,setting,value
COC(=O)C1=CCC(NC(=O)C2(C)CN(c3cc(Cl)cc(Cl)c3)C(=O)O2)C1 (stereo not drawn) [Compound 149],Kochia plant response rating (0-100),kochia (Bassia scoparia) [1]; [28],90
same,Kochia plant response rating (0 to 100 scale),kochia (Bassia scoparia) [1]; [29],80
same,Galium plant response rating (0 to 100 scale),[2],60
same,Blackgrass plant response rating (0-100),[3]; [28],90
same,Blackgrass plant response rating (0 to 100 scale),[3]; [29],90
same,"Pigweed, Palmer plant response rating (0-100)",[4]; [28],90
same,"Pigweed, Palmer plant response rating (0 to 100 scale)",[4]; [29],90
same,"Ryegrass, Italian plant response rating (0-100)",[5]; [28],80
same,"Ryegrass, Italian plant response rating (0 to 100 scale)",[5]; [29],80
same,Wheat plant response rating (0-100),[6]; [28],90
same,Wheat plant response rating (0 to 100 scale),[6]; [29],80
same,Corn plant response rating (0-100),corn (Zea mays) [7]; [28],100
same,Corn plant response rating (0 to 100 scale),corn (Zea mays) [7]; [29],100
same,"Foxtail, Green plant response rating (0-100)",[8]; [28],90
same,"Foxtail, Green plant response rating (0 to 100 scale)",[8]; [29],90
same,Horseweed plant response rating (0-100),[9]; [28],70
same,Horseweed plant response rating (0 to 100 scale),[9]; [29],50
same,"Oat, Wild plant response rating (0-100)",[10]; [28],90
same,"Oat, Wild plant response rating (0 to 100 scale)",[10]; [29],30
same,Soybean plant response rating (0-100),soybean (Glycine max) [11]; [28],90
same,Soybean plant response rating (0 to 100 scale),soybean (Glycine max) [11]; [29],60
same,Ragweed plant response rating (0-100),[12]; [28],50
same,Ragweed plant response rating (0 to 100 scale),[12]; [29],20
same,Barnyardgrass plant response rating (0-100),[13]; [28],100
same,Barnyardgrass plant response rating (0 to 100 scale),[13]; [29],100
same,"Plant response rating, Sedge, Umbrella (0 to 100 scale, 0 is no effect and 100 is complete control)",[14],95
same,"Plant response rating, Barnyardgrass (0 to 100 scale, 0 is no effect and 100 is complete control)",[15],95
same,"Plant response rating, Ducksalad (0 to 100 scale, 0 is no effect and 100 is complete control)",[16],95
same,"Plant response rating, Rice (0 to 100 scale, 0 is no effect and 100 is complete control)",rice (Oryza sativa),90
same,Kochia plant response rating,"kochia (Bassia scoparia) [17]; 16 g ai/ha, 0 to 100 scale",0
same,Kochia plant response rating (0-100),kochia (Bassia scoparia) [17]; [30],50
same,Blackgrass plant response rating,"[18]; 16 g ai/ha, 0 to 100 scale",0
same,Blackgrass plant response rating (0-100),[18]; [30],0
same,"Pigweed, Palmer plant response rating","[19]; 16 g ai/ha, 0 to 100 scale",90
same,"Pigweed, Palmer plant response rating (0-100)",[19]; [30],100
same,"Ryegrass, Italian plant response rating","[20]; 16 g ai/ha, 0 to 100 scale",20
same,"Ryegrass, Italian plant response rating (0-100)",[20]; [30],80
same,Wheat plant response rating,"[21]; 16 g ai/ha, 0 to 100 scale",20
same,Wheat plant response rating (0-100),[21]; [30],70
same,Corn plant response rating,"corn (Zea mays) [22]; 16 g ai/ha, 0 to 100 scale",0
same,Corn plant response rating (0-100),corn (Zea mays) [22]; [30],30
same,"Foxtail, Green plant response rating","[23]; 16 g ai/ha, 0 to 100 scale",30
same,"Foxtail, Green plant response rating (0-100)",[23]; [30],90
same,"Oat, Wild plant response rating","[24]; 16 g ai/ha, 0 to 100 scale",0
same,"Oat, Wild plant response rating (0-100)",[24]; [30],20
same,Soybean plant response rating,"soybean (Glycine max) [25]; 16 g ai/ha, 0 to 100 scale",0
same,Soybean plant response rating (0-100),soybean (Glycine max) [25]; [30],0
same,Ragweed plant response rating,"[26]; 16 g ai/ha, 0 to 100 scale",0
same,Ragweed plant response rating (0-100),[26]; [30],30
same,Barnyardgrass plant response rating,"[27]; 16 g ai/ha, 0 to 100 scale",60
same,Barnyardgrass plant response rating (0-100),[27]; [30],90
